Calls of active or inactive are those of the source. The calls are words filed in the database; no cut-off is given here.
Columns and labels:
Rattus norvegicus [1] = assay: Comparative activity versus Dihydrodimethylbenzofurans in the CPE (Carrageenan paw edema) assay; (-) indicates the compound is inactive; assay type: functional, organism-based
Rattus norvegicus [2] = assay: Inhibition of paw swelling relative to the tebufelone in rat. Value was reported as Carrageenan paw edema index; assay type: functional
Rattus norvegicus [3] = species on record: Rattus norvegicus; assay: Analgesic activity in phenylquinone-induced abdominal constriction assay (PAC); assay type: functional, Abdomen; parameters: concentration or dose not given beside the values
[4] = biological target: T1, Prostaglandin G/H synthase 2 (Homo sapiens, UniProt P35354)
T1 sequence (P35354 whole entry): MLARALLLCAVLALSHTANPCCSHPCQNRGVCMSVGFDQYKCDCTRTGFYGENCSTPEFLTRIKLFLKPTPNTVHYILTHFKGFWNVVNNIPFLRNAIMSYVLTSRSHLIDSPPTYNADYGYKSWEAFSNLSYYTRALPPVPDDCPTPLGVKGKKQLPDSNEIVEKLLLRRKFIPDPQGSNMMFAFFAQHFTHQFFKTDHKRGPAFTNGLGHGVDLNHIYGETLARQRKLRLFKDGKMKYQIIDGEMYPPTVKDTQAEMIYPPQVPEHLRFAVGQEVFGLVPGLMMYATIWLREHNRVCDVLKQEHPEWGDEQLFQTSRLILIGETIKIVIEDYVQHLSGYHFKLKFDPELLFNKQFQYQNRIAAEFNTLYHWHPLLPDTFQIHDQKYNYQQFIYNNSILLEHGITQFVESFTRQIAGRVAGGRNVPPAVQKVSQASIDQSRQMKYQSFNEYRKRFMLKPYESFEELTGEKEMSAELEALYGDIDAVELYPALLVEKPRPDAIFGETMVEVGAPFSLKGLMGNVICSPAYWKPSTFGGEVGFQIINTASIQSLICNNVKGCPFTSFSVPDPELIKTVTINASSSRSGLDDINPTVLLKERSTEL
Description: Inhibitory activity against prostaglandin G/H synthase 2 (COX-2)

[5] = biological target: Prostaglandin G/H synthase 1 (Homo sapiens, UniProt P23219)
Chain of Prostaglandin G/H synthase 1 (P23219 whole entry): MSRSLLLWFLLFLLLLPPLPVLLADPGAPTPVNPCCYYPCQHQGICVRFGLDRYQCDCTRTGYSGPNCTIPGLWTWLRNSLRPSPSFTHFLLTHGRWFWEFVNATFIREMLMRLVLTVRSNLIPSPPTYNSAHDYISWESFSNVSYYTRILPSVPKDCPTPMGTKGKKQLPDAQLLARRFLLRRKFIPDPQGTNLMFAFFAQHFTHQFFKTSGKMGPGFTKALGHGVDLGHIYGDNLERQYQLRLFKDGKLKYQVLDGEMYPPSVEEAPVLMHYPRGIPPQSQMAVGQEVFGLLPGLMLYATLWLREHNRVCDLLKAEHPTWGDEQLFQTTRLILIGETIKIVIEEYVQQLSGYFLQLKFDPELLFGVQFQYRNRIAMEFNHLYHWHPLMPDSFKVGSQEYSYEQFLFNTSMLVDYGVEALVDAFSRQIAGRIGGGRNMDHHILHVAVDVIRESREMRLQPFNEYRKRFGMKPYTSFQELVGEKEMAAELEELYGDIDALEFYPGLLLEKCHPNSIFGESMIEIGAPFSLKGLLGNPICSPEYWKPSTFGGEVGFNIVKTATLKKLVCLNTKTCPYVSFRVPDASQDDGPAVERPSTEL
Description: Inhibitory activity against prostaglandin G/H synthase 1 (COX-1)

[6] = biological target: T2, Polyunsaturated fatty acid 5-lipoxygenase (Homo sapiens, UniProt P09917); assay: Inhibition of 5-Lipoxygenase (5-LOX)
T2 sequence (P09917 whole entry): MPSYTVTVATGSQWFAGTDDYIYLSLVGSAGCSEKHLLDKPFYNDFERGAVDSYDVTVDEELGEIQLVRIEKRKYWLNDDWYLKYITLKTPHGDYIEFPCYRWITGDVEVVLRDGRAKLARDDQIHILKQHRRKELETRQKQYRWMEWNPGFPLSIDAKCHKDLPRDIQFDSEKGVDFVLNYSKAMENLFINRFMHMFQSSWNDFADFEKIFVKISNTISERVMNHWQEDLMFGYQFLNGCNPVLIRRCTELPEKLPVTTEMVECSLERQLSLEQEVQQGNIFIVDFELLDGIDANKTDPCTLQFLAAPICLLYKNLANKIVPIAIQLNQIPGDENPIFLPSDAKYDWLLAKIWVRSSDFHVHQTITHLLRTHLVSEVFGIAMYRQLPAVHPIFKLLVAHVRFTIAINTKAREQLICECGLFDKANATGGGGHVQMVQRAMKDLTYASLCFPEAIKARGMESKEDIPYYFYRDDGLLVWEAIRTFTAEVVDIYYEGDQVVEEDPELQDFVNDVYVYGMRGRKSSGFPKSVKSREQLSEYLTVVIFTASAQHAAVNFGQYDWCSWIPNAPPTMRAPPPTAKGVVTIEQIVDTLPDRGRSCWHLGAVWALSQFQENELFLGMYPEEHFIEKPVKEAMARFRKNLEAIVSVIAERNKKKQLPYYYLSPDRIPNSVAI

Rattus norvegicus [7] = species on record: Rattus norvegicus; assay: Compound was tested for its analgesic activity in phenylquinone-induced abdominal constriction assay(PAC); assay type: functional; details: Abdomen
Rattus norvegicus [8] = assay: Analgesic activity (50 mg/kg, sc)in phenylquinone-induced abdominal constriction assay(PAC); assay type: functional, Abdomen

SMILES | CPE index (Rattus norvegicus [2]) | Inhibition (Rattus norvegicus [3]) [%] | IC50 [4] [nM] | IC50 [5] [nM] | also measured
Cc1nc(-c2cc(C(C)(C)C)c(O)c(C(C)(C)C)c2)no1 | – | – | – | – | Activity (Rattus norvegicus [1]): inactive
CC(C)(C)c1cc(C(=O)NCCC2CC2)cc2c1OCC2(C)C | 0.06 | – | – | – | –
CC(C)(C)c1cc(-c2cocn2)cc2c1OCC2(C)C | 0.19 | – | – | – | –
Cc1cc(/C=C\c2cc(C(C)(C)C)c3c(c2)C(C)(C)CO3)[nH]n1 | 0.56 | 35 | – | – | –
CC(C)(C)c1cc(-c2cn3cc[s+]([O-])c3n2)cc2c1OCC2(C)C (stereo not drawn) | 0.96 | – | – | – | –
CC(C)(C)c1cc(C(=O)Nc2nccs2)cc2c1OCC2(C)C | 0.49 | – | – | – | –
CC(=O)Nc1cc(C(C)(C)C)c2c(c1)C(C)(C)CO2 | 0.66 | 22 | 3500 | 3500 | –
CC(C)(C)c1cc(C(=O)NCC(O)CO)cc2c1OCC2(C)C (stereo not drawn) | 0.51 | – | – | – | –
CC(C)(C)c1cc(C(=O)N2CCCC2)cc2c1OCC2(C)C | 0.78 | – | – | – | –
CC(C)(C)c1cc(C(=O)O)cc(C(C)(C)C)c1O | – | – | – | – | Activity (Rattus norvegicus [1]): inactive
Cc1cc(/C=C\c2cc(C(C)(C)C)c3c(c2)C(C)(C)CO3)on1 | 0 | – | – | – | Activity (Rattus norvegicus [1]): inactive
CCCNC(=O)c1cc(C(C)(C)C)c2c(c1)C(C)(C)CO2 | 1.17 | 63 | 950 | 550 | IC50 [6]: > 50000 nM
CC(C)(C)c1cc(C(=O)c2nccs2)cc2c1OCC2(C)C | 0.75 | 28 | – | – | –
CC(C)(C)c1cc(C(=O)NC2=NCCS2)cc2c1OCC2(C)C | 0.81 | 65 | – | – | –
COCCNC(=O)c1cc(C(C)(C)C)c2c(c1)C(C)(C)CO2 | 1.47 | 84 | 30 | 1000 | IC50 [6]: 50000 nM
CCCCNC(=O)c1cc(C(C)(C)C)c2c(c1)C(C)(C)CO2 | 0.46 | – | 220 | 2500 | –
CC(C)(C)c1cc(-c2cscn2)cc2c1OCC2(C)C | 1.53 | 59 | – | – | –
CC(C)(C)c1cc(-c2cccs2)cc2c1OCC2(C)C | 0.92 | 52 | 70 | 200 | IC50 [6]: 9000 nM
Cn1cccc1C(=O)c1cc(C(C)(C)C)c2c(c1)C(C)(C)CO2 | 1.24 | 57 | 45 | 35 | –
CC(C)(C)c1cc(C(=O)NCCO)cc2c1OCC2(C)C | 0.33 | – | – | – | –
CCN(C)C(=O)c1cc(C(C)(C)C)c2c(c1)C(C)(C)CO2 | 0.86 | – | 4500 | 2500 | IC50 [6]: 22000 nM; ED50 (Rattus norvegicus [7]): 19 mg/kg

SMILES | CPE index (Rattus norvegicus [2]) | Inhibition (Rattus norvegicus [3]) [%] | IC50 [4] [nM] | IC50 [5] [nM] | also measured
CC(C)(C)c1cc(/C=C(/C(=O)O)c2cccs2)cc2c1OCC2(C)C | 0.76 | 19 | – | – | –
CN(C(=O)c1cc(C(C)(C)C)c2c(c1)C(C)(C)CO2)C1CC1 | 1.82 | – | 1000 | 5000 | IC50 [6]: 12000 nM; ED50 (Rattus norvegicus [7]): 10 mg/kg
CC(C)(C)c1cc(C(=O)c2ccco2)cc2c1OCC2(C)C | 0.7 | 24 | – | – | –
CC(C)(C)c1cc(C(=O)O)cc2c1OCC2(C)C | 0.47 | – | – | – | –
CC(C)(C)c1cc(-c2cn3ccsc3n2)cc2c1OCC2(C)C | 0.81 | 68 | 15 | 75 | IC50 [6]: 10000 nM
CC(C)(C)c1cc(Nc2ccccc2C(=O)O)cc2c1OCC2(C)C | 0.78 | – | 4000 | 2500 | –
CCCCCNC(=O)c1cc(C(C)(C)C)c2c(c1)C(C)(C)CO2 | 0.16 | – | 250 | 2000 | –
COC(=O)c1cc(C(C)(C)C)c2c(c1)C(C)(C)CO2 | 0.16 | – | – | – | –
CC(C)(C)c1cc(C(=O)NC2CC2)cc2c1OCC2(C)C | 0.68 | 20 | 550 | 290 | IC50 [6]: > 50000 nM
CC(C)(C)c1cc(C(N)=O)cc(C(C)(C)C)c1O | – | – | – | – | Activity (Rattus norvegicus [1]): inactive
CC(C)(C)c1cc(C(=O)c2ccoc2)cc2c1OCC2(C)C | 0.68 | 3 | – | – | –
CC(C)(C)c1cc(/C=C\c2ccccn2)cc2c1OCC2(C)C | 0.5 | – | – | – | Activity (Rattus norvegicus [1]): inactive
CCCNC(=O)Nc1cc(C(C)(C)C)c2c(c1)C(C)(C)CO2 | 0.41 | – | – | – | –
CC(C)(C)c1cc(C(=O)N2CCCCC2)cc2c1OCC2(C)C | 0.52 | 34 | – | – | –
CCCN(C(=O)c1cc(C(C)(C)C)c2c(c1)C(C)(C)CO2)C1CC1 | 1.41 | – | 4000 | 4500 | –
CN(C)C(=N)c1cc(C(C)(C)C)c2c(c1)C(C)(C)CO2 | 0.47 | – | – | – | –
CC(C)(C)c1cc(C(=O)Nc2ccccc2)cc2c1OCC2(C)C | 0.01 | – | – | – | –
CC(C)(C)c1cc(C(=O)NC2CCC2)cc2c1OCC2(C)C | 0 | – | – | – | –
CC(C)(C)c1cc(C(=O)c2ccsc2)cc2c1OCC2(C)C | 0.62 | 40 | – | – | –
CC(C)(C)c1cc(C(=N)N2CCCC2)cc2c1OCC2(C)C | 0.8 | 0 | > 100000 | > 100000 | IC50 [6]: 30000 nM
CC(C)(C)c1cc(/C=C\c2cccs2)cc2c1OCC2(C)C | 0.77 | 13 | 35 | 20 | IC50 [6]: 6000 nM

SMILES | CPE index (Rattus norvegicus [2]) | Inhibition (Rattus norvegicus [3]) [%] | IC50 [4] [nM] | IC50 [5] [nM] | also measured
CCNC(=O)c1cc(C(C)(C)C)c2c(c1)C(C)(C)CO2 | 0.88 | – | 6000 | 20000 | Inhibition (Rattus norvegicus [8]): 56%
CC(C)(C)c1cc(-c2csc(N)n2)cc2c1OCC2(C)C | 0.26 | – | – | – | –
CC1(C)CC(c2cc(C(C)(C)C)c3c(c2)C(C)(C)CO3)=NO1 | 0.56 | 80 | 200 | 70 | –
CN(C)CCNC(=O)c1cc(C(C)(C)C)c2c(c1)C(C)(C)CO2 | 0 | – | – | – | –
CCCN(C)C(=O)c1cc(C(C)(C)C)c2c(c1)C(C)(C)CO2 | 0.91 | 36 | – | – | –
CC(C)(C)c1cc(C(=O)NC2CCCC2)cc2c1OCC2(C)C | 0 | – | – | – | –
CC(=O)Nc1cc(C(C)(C)C)c(O)c(C(C)(C)C)c1 | – | – | – | – | Activity (Rattus norvegicus [1]): inactive
CC(C)(C)c1cc(-c2ccco2)cc2c1OCC2(C)C | 0.93 | 7 | – | – | –
Cc1nc(-c2cc(C(C)(C)C)c3c(c2)C(C)(C)CO3)no1 | 0.83 | – | – | – | –
CCNC(=O)Nc1cc(C(C)(C)C)c2c(c1)C(C)(C)CO2 | 0.73 | 36 | – | – | –
CC(C)(C)c1cc(-c2cn3c(n2)S(=O)(=O)C=C3)cc(C(C)(C)C)c1O | – | – | – | – | Activity (Rattus norvegicus [1]): inactive
CC(C)(C)c1cc(C(=O)N2CCSCC2)cc2c1OCC2(C)C | 0.71 | 29 | – | – | –
CC(C)(C)c1cc(/C=C2/SC(N)=NC2=O)cc2c1OCC2(C)C | 0.07 | – | 3000 | 5000 | Activity (Rattus norvegicus [1]): inactive
CC(C)(C)c1cc(/C=C\c2cccnc2)cc2c1OCC2(C)C | 0.78 | 45 | – | – | –
CC(C)(C)c1cc(-c2csc(N=C(N)N)n2)cc2c1OCC2(C)C | 1.38 | 77 | 9000 | 15000 | –
CC(C)NC(=O)c1cc(C(C)(C)C)c2c(c1)C(C)(C)CO2 | 1.09 | 43 | – | – | –
CC(C)(C)c1cc(C=C2CCOC2=O)cc2c1OCC2(C)C | 0.93 | – | 3.5 | 45 | IC50 [6]: 4000 nM
CC(C)(C)c1cc(C(=O)c2cccs2)cc2c1OCC2(C)C | 0.58 | 34 | 38 | 45 | IC50 [6]: 10000 nM
CC(C)(C)c1cc(C(=O)NCC2CC2)cc2c1OCC2(C)C | 0.44 | – | – | – | –
CCN(C(=O)c1cc(C(C)(C)C)c2c(c1)C(C)(C)CO2)C1CC1 | 1.14 | – | – | – | –

From ChEMBL document CHEMBL1131087, “New cyclooxygenase-2/5-lipoxygenase inhibitors. 3. 7-tert-butyl-2, 3-dihydro-3,3-dimethylbenzofuran derivatives as gastrointestinal safe antiinflammatory and analgesic agents: variations at the 5 position” (J Med Chem, 1998)
